The text below walks through data of patent publication US20120065187A1 (ALCON RESEARCH, LTD, priority 2008, published 2012).

Test [1] deals with Hartley VAF outbred guinea pigs. The experiment in a line: Allergic conjunctivitis in passively sensitized guinea pigs (conjunctival EPO activity). Type of test: in vivo. The arrangement: key: +: a 0.01% bid dose was statistically equivalent to dexamethasone with respect to reduction of EPO activity; −: the compound was statistically inferior to dexamethasone and not different than vehicle. The conditions noted are these: 0.01% bid topical, 1 hour prior to and 8 hours after ovalbumin challenge; reduction of conjunctival EPO activity vs dexamethasone. The protocol: (§1) Male Hartley VAF outbred guinea pigs were passively sensitized to ovalbumin by a single OD subconjunctival injection of undiluted guinea pig anti-ovalbumin antiserum 24 hours before OD topical challenge with 500 μg ovalbumin in saline. Control animals were injected with saline only and challenged with ovalbumin. To determine acute phase drug efficacy, 30 min after challenge animals were clinically scored by a masked observer for severity of signs of conjunctivitis based on a standard scale. Test compounds were administered topically 1 hour prior to challenge (QD protocol), or 1 hour prior to challenge and again 8 hours after challenge (BID protocol). Twenty-four hours after challenge, animals were euthanized and conjunctivae were harvested for determination of tissue eosinophil peroxidase (EPO) concentration as a marker of allergic inflammation. Homogenates of freshly collected tissues were prepared by shaking the tissues in 2 mL round-bottom tubes containing 0.5 mL of homogenization buffer (50 mM Tris HCl, pH 8.0, 6 mM KBr) and one 5-mm stainless steel bead on a Qiagen TissueLyser at 30 Hz for 5 min. Homogenates were frozen and thawed once, then centrifuged at 10,000 rpm for 5 min. EPO activity in supernatants was measured by reacting diluted homogenates with a solution of 6 mM o-phenylenediamine substrate and 8.8 mM H2O2 in homogenization buffer for 3 min. The reaction was stopped with 4M H2SO4 and absorbances were measured at […] on a spectrophotometric plate reader. Total EPO in samples was calculated from a standard curve of recombinant human EPO in each assay. EPO activity was normalized to total protein concentration (Pierce BCA assay) in supernatants. Background EPO activity was determined from the unsensitized, antigen-challenged control group. Percent inhibition was calculated from the sensitized, antigen-challenged, vehicle-treated control group in each experiment. Ovalbumin-injected animals dosed topically with 0.1% w/v dexamethasone (dex) served as positive control. Groups were compared by ANOVA with Dunnett's or Tukey's post-hoc tests where appropriate with significance assigned at the 95% confidence level.
(§2) The table below summarizes the results.

Another test has as its target T1, human H1 (Homo sapiens, UniProt P35367).
T1 construct: host or cells: CHO-K1
Kind of test: In vitro histamine receptor cell-based assay (aequorin bioluminescence), H1 antagonism. The note with it: CHO-K1 cells expressing human H1 and aequorin; histamine at EC80; read-out: H1 Antagonist EC50. A digest of the protocol: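 Stable CHO-K1 lines expressing human H1 or H4 (H4 with Gα16) plus mitochondrial aequorin, loaded 4 h with 5 μM coelenterazine-h at ~21 °C. Compounds preincubated 15 min, then histamine at EC80 added; bioluminescence decrease (AUC or max–min) expressed as % of positive control (diphenhydramine for H1, JNJ7777120 for H4, 10 μM).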

For the next test, the system named is CD-1 mice. Kind of test: Model of scratching induced by histamine in CD-1 mice (assessment of H4 antagonism). Type of test: in vivo. The conditions noted are these: 30 mg/kg oral gavage 30 min before i.d. histamine; bouts counted for 20 minutes; female CD-1 mice. As for the experimental part:
Assessment of H4 Antagonism—Model of Scratching Induced by Histamine in CD-1 mice.
Female CD-1 mice (Charles River, Hollister, Calif.), approximately 10 weeks old were housed under controlled conditions (12 h light: 12 h dark, 21° C.) and allowed ad libitum access to food (Purina LabDiet 5P14) and water. Animals were deprived of access to food and water for 1 hour during the experimental itch protocol. All studies were performed under the guidelines of the Institutional Animal Care and Use Committee of Kalypsys, Inc.
At least 24 hours prior to study initiation, the hair on the rostral dorsum of the animal was clipped to clear a location for intradermal (i.d.) injection of pruritogen (histamine, dissolved in Dulbecco's PBS [pH 7.4] at a concentration of 10 μmol per 20 μL). Animals were dosed by oral gavage with vehicle (9/0.5/0.5/90 PEG-400/Tween-80/PVP-K30/1% carboxymethylcellulose in water) or test compounds (formulated as suspensions in vehicle) at 30 mg/kg in 200 μL by means of a 20 gauge 1.5″ feeding needle affixed to a 1 mL syringe. There were 8 mice per study group. Thirty minutes after oral dosing, animals were injected i.d. with 20 μL of histamine. Immediately afterward animals were placed into individual sections of a standard acrylic cage for observation, which was recorded digitally for a 20 minute period by video cameras (Panasonic SDR-S70/PC) for later review.
Quantitation of induced itch was measured as described previously (Bell, J. K. et al., British Journal of Pharmacology, 142:374-380, 2004) by counting the number of scratching bouts per animal in the 20 minute period after i.d. injection. A scratching bout was defined as three rapid scratch movements of the hind paw in the area of the injection site. Activity with the fore paws was deemed to be grooming and not scratching, and thus was not counted. All data were analyzed using GraphPad Prism (San Diego, Calif.) software, and reported as mean percentage reduction in scratching bouts versus vehicle control. The significance of antagonist effect on agonist-induced itching was analyzed using the nonparametric Mann-Whitney test with P values <0.05 being designated as statistically significant.
Data reported as NT refers to the example having been not tested. It is expected that these compounds when tested will be active and will have utility similar to those that have been tested. In Table 2 below, entries with superscript “1” are statistically significant according to the criteria outlined in the protocol above. Entries with superscript “2” are examples that have been tested on two separate days and the results reported below are the mean of the two experiments

Another test concerns the target T2, human H4 (Homo sapiens, UniProt Q9H3N8).
T2 construct: host or cells: CHO-K1
The experiment in a line: In vitro histamine receptor cell-based assay (aequorin bioluminescence), H4 antagonism. The note with it: CHO-K1 cells expressing human H4, aequorin and Gα16; histamine at EC80; read-out: H4 Antagonist EC50. Summed up: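 CHO-K1 cells stably expressing human H4, Gα16 and mitochondrial aequorin, loaded with 5 μM coelenterazine-h, preincubated 15 min at room temperature with compound, then challenged with histamine at EC80.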

The subject of test [2] is Hartley VAF outbred guinea pigs. The experiment in a line: Allergic conjunctivitis in passively sensitized guinea pigs (conjunctival EPO activity). Type of test: in vivo. The arrangement: key: +: a ≦0.1% qd dose was statistically equivalent to dexamethasone with respect to reduction of EPO activity; −: the compound was statistically inferior to dexamethasone and not different than vehicle. The conditions noted are these: ≦0.1% qd topical, 1 hour prior to ovalbumin challenge; reduction of conjunctival EPO activity vs dexamethasone. The protocol:
as §1, §2

pEC50: −log10 of the molar value. Some results are limits rather than exact numbers.

T1 sequence (P35367 whole entry): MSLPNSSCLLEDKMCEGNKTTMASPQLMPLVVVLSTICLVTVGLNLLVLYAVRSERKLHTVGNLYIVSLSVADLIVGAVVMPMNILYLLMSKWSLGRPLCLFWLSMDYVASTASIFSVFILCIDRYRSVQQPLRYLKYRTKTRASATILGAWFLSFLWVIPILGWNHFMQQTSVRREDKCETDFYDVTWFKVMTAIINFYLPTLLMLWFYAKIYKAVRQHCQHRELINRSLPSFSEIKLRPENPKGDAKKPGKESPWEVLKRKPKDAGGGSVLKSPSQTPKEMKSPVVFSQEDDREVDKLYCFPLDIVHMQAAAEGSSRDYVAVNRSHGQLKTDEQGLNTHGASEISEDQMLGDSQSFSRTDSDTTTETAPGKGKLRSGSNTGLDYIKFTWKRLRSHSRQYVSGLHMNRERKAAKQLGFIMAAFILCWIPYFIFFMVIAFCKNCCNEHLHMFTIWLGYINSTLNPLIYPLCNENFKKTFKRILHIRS
T2 sequence (Q9H3N8 whole entry): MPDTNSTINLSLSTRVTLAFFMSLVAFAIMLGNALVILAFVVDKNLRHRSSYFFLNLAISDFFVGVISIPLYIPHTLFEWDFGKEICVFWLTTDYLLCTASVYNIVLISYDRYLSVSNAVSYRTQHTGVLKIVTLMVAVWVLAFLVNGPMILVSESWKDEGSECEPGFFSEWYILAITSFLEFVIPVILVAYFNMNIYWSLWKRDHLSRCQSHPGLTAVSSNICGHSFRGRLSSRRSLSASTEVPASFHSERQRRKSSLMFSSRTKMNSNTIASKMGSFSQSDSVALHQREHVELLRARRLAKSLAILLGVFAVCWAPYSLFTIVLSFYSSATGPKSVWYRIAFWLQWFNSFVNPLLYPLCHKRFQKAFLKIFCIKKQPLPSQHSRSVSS

For `CN1CCN(c2nc3ccc(Cl)cc3n3nnnc23)CC1` [Example 20, 8-Chloro-4-(4-methylpiperazin-1-yl)tetrazolo[1,5-a]quinoxaline], the BID activity entry in test [1] was “−”. In addition, the pEC50 was below 5.00 at human H1 and above 5.00 at human H4. For the same compound, the “Scratching Bouts (% change from vehicle control)” value with CD-1 mice is on record as −1%.

As to `Cc1nc2c3cc(C(F)(F)F)ccc3nc(N3CCN(C)CC3)n2n1` [Example 103, 2-Methyl-5-(4-methylpiperazin-1-yl)-9-(trifluoromethyl)-[1,2,4]triazolo[1,5-c]quinazoline], the pEC50 on human H1 was below 5.00; on human H4 it was above 5.00. For the same compound, the “Scratching Bouts (% change from vehicle control)” value with CD-1 mice was −37%. Also, the QD activity result in test [2] is “+”.

In the case of `Cc1nc2c3cc(Cl)ccc3nc(N3CCNCC3)n2n1` [Example 112, 9-Chloro-2-methyl-5-(piperazin-1-yl)-[1,2,4]triazolo[1,5-c]quinazoline], the pEC50 was below 5.00 on human H1 and above 5.00 on human H4. In addition, the “Scratching Bouts (% change from vehicle control)” value in the test on CD-1 mice is listed as −73^1%.

As for `Cc1nc2c3cc(Cl)ccc3nc(N3CCN(C)CC3)n2n1` [Example 113, 9-chloro-2-methyl-5-(4-methylpiperazin-1-yl)-[1,2,4]triazolo[1,5-c]quinazoline], the BID activity result in test [1] was “−”. For the same compound, the pEC50 on human H1 was below 5.00; on human H4, above 5.00. For the same compound, the “Scratching Bouts (% change from vehicle control)” value in the test with CD-1 mice was −66^1,2%.

As for `CN1CCN(c2nc3ccc(Cl)cc3c3c[nH]nc23)CC1` [Example 152, 8-Chloro-4-(4-methylpiperazin-1-yl)-2H-pyrazolo[3,4-c]quinoline], the BID activity result in test [1] is recorded as “−”. In addition, the pEC50 was below 5.00 at human H1 and above 5.00 on human H4. Also, the “Scratching Bouts (% change from vehicle control)” value in the test on CD-1 mice was −13%.

For orientation: pEC50 means the EC50 on a negative log10 scale, so that one unit is a factor of ten.
